{"source": "paper PMC9532399", "about": "“The lysosomal transporter TAPL has a dual role as peptide translocator and phosphatidylserine floppase” (Nature Communications, 2022)", "target": "T1, TAPL Y405A mutant (Mus musculus, UniProt Q9JJ59, Y405A)", "T1 construct": "thrombin cleavage site (C); eGFP (C); 10XHis (C); made in house; host or cells: Trichoplusia ni High Five (Hi5) insect cells, baculovirus (pVL1393)", "T1 sequence (Q9JJ59 143-762 Y405A)": "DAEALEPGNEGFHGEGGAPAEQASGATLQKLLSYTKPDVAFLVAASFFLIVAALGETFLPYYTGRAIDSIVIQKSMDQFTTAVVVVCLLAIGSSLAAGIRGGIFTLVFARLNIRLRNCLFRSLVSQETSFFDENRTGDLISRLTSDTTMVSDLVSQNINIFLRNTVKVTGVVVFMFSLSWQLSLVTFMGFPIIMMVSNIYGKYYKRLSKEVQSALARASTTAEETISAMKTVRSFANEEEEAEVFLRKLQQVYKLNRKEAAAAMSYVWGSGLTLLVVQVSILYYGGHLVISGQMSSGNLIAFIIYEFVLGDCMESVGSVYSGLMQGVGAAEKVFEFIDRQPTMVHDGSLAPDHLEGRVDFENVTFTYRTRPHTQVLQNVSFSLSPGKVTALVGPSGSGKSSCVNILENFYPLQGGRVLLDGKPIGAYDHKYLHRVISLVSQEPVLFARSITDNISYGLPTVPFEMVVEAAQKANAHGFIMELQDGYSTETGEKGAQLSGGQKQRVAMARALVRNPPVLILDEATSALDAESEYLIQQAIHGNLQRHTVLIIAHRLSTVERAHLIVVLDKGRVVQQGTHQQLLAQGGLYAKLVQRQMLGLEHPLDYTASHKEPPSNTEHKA", "assay": "Dithionite-based flip-flop assay, Y405A proteoliposomes", "type": "biochemical", "procedure": "All lipids used in reconstitution were purchased from Avanti Polar Lipids, Inc. (purity > 99%). The in vitro flip–flop assay was performed using NBD* dye-labeled proteoliposomes as described previously. Briefly, E. coli polar lipids and egg PC were mixed in a 1:1 molar ratio, and 0.5% (mol/mol) NBD*-lipid was added. The lipid mixture was then dried under nitrogen gas. The NBD*-lipids used were 18:1-06:0 NBD*-PS (1-oleoyl-2-{6-[(7-nitro-2-1,3-benzoxadiazol-4-yl)amino]hexanoyl}-sn-glycero-3-phosphoserine), 18:1-06:0 NBD*-PC (1-oleoyl-2-{6-[(7-nitro-2-1,3-benzoxadiazol-4-yl)amino]hexanoyl}-sn-glycero-3-phosphocholine), 18:1-06:0 NBD*-PG (1-oleoyl-2-{6-[(7-nitro-2-1,3-benzoxadiazol-4-yl)amino]hexanoyl}-sn-glycero-3-[phospho-rac-(1-glycerol)]), 18:1-06:0 NBD*-PE (1-oleoyl-2-{6-[(7-nitro-2-1,3-benzoxadiazol-4-yl)amino]hexanoyl}-sn-glycero-3-phosphoethanolamine), and 25-NBD*-Cholesterol (25-[N-[(7-nitro-2-1,3-benzoxadiazol-4-yl)methyl]amino]−27-norcholesterol). Thin lipid films were solubilized in 20 mM HEPES–NaOH pH 8.0, 200 mM NaCl and 5% (v/v) glycerol, incubated at RT for 30 min and subjected to 5 freeze–thaw cycles. After extrusion with a Mini-Extruder at 65 °C, final lipid concentrations were determined by phosphorus assays. Briefly, 10 μL of extruded lipid was added to 10 μL of 2% (w/v) ammonium molybdate and 300 μL of concentrated perchloric acid. […] Lipid concentrations were calculated from the absorbance at 820 nm using a standard curve prepared with NaH2PO4 solution. […]\nTo measure the flip–flop activity, 10 μL of 2 mM NBD*-labeled proteoliposomes were added to 100 μL of reaction buffer (20 mM HEPES–NaOH pH 8.0, 200 mM NaCl, 5 mM ATP and 5% (v/v) glycerol) in the presence of 2 mM MgCl2 (or NaCl), and incubated at 37 °C for 1 h. The mixture was transferred to a 96-well plate and time-dependent fluorescence (λex/λem = 460/538 nm) was recorded every 30 s for 26 min using a fluorescence spectrophotometer (Gemini XPS). After the baseline fluorescence had stabilized, 10 mM sodium dithionite was added to quench the fluorescence of NBD*-lipid present in the outer leaflets of the liposomes. The initial rapid drop and subsequent slow decline in fluorescence intensity were monitored. […] The net percentage of NBD*-lipid translocated across the lipid bilayer was calculated from the following equation[72]: the percentage of protected NBD*-lipid in the inner leaflet = [(FD−F0)/(FT−F0)]×100, and that of accessible NBD*-lipid in the outer leaflet = [(FT−FD)/(FT−F0)]×100, where FT is the total fluorescence of the sample before the addition of dithionite, FD is the fluorescence of the sample after quenching with dithionite, and F0 is any residual fluorescence of the sample after solubilization with Triton X-100. […]"}
{"smiles": "CCCCCCCC/C=C\\CCCCCCCC(=O)OC[C@H](COP(=O)(O)OC[C@H](N)C(=O)O)OC(=O)CCCCCNc1ccc([N+](=O)[O-])c2nonc12", "note": "[NBD*-PS, 1-oleoyl-2-{6-[(7-nitro-2-1,3-benzoxadiazol-4-yl)amino]hexanoyl}-sn-glycero-3-phosphoserine]", "values": [{"measurement": "NBD*-PS fluorescence intensity (net percentage transported outer to inner leaflet)", "setting": "Mg2+/ATP minus Na+/ATP, mean n=3", "value": 1.556, "unit": "%"}, {"measurement": "NBD*-PS fluorescence intensity (net percentage transported)", "setting": "replicate I", "value": 1.636, "unit": "%"}, {"measurement": "NBD*-PS fluorescence intensity (net percentage transported)", "setting": "replicate II", "value": 1.459, "unit": "%"}, {"measurement": "NBD*-PS fluorescence intensity (net percentage transported)", "setting": "replicate III", "value": 1.571, "unit": "%"}]}
